How the values were obtained:
[1] = Chemical stability of the compound assessed as drug decomposition at 1 mM in phosphate buffer at pH 2 after 24 hrs by HPLC analysis; type: physicochemical; details: read-out: Drug degradation
[2] = Nephrotoxicity in human HK2 cells assessed as LDH release at 100 uM measured after 24 hrs; type: toxicity, cell-based; details: hk-2, 24 h
[3] = Nephrotoxicity in human HK2 cells assessed as LDH release at 10 uM measured after 24 hrs; type: toxicity, cell-based; details: hk-2, 24 h
[4] = Cytotoxicity against human HepG2(2.2.15) cells infected with HBV DNA; type: cell-based
Hepatitis B virus [5] = assay: Antiviral activity against Hepatitis B virus infected in human HepG2(2.2.15) cells assessed as inhibition of viral replication incubated for 2 days followed by wash out measured after 10 days by RT-PCR analysis; type: functional, organism-based
[6] = Cytotoxicity against human HK2 cells by MTT assay; type: cell-based, HK-2
[7] = Nephrotoxicity in human HK2 cells assessed as LDH release at 1 uM measured after 24 hrs; type: toxicity, cell-based; details: hk-2, 24 h
[8] = Selectivity index, ratio of CC50 for HepG2(2.2.15) infected with HBV DNA to EC50 for Hepatitis B virus infected in human HepG2(2.2.15) cells
[9] = Chemical stability of the compound assessed as drug decomposition at 1 mM in phosphate buffer at pH 7.4 after 24 hrs by HPLC analysis; type: physicochemical; details: read-out: Drug degradation
[10] = Half life in rat plasma at 0.2 mg after 24 hrs by HPLC analysis; type: ADME
[11] = Ratio of adefovir dipivoxil SI to compound SI for ratio of CC50 for HepG2(2.2.15) infected with HBV DNA to EC50 for Hepatitis B virus infected in human HepG2(2.2.15) cells; type: functional
Hepatitis B virus [12] = assay: Ratio of adefovir dipivoxil to compound EC50 for Hepatitis B virus infected in human HepG2(2.2.15) cells assessed as inhibition of viral replication incubated for 2 days followed by wash out measured after 10 days by RT-PCR analysis; type: functional

Row | Compound | degraded at 24 h, 1000 µM [1] [%] | EC50 (Hepatitis B virus [5]) [µM] | degraded at 24 h, 1000 µM [9] [%] | half-life [10] [h] | Activity [2] [%] | Activity [3] [%] | CC50 [4] [µM] | CC50 [6] [µM] | Activity [7] [%] | Ratio CC50/EC50 [8] | Ratio [11] | Ratio EC50 (Hepatitis B virus [12])
1 | CC(C)Cc1ccc(C(C)C(=O)OCCCOP(=O)(COCCn2cnc3c(N)ncnc32)OCCOC(=O)[C@@H](N)C(C)C)cc1 (some centres not stated) | 9.6 | 8.8 | 7.8 | 1.5 | 36.87 | 36.25 | 577 | > 1000 | 35.41 | 65.56 |  | 
2 | CC[C@H](C)[C@H](N)C(=O)OCCOP(=O)(COCCn1cnc2c(N)ncnc21)OCCCOC(=O)C(C)c1ccc(CC(C)C)cc1 (some centres not stated) | 12.7 | 12.5 | 9.1 | 0.75 | 40.6 | 36.67 | 488 | > 1000 | 36.25 | 39.11 |  | 
3 | CC[C@H](C)[C@H](N)C(=O)OCCOP(=O)(COCCn1cnc2c(N)ncnc21)OCCCOC(=O)C(C)c1ccc(-c2ccccc2)c(F)c1 (some centres not stated) | 15.3 | 2.26 | 12.6 | 3.5 | 40.52 | 36.95 | 677 | > 1000 | 35.89 | 299.69 |  | 
4 | CC(C(=O)OCCCOP(=O)(COCCn1cnc2c(N)ncnc21)OCCOC(=O)[C@@H](N)Cc1ccccc1)c1ccc(-c2ccccc2)c(F)c1 (some centres not stated) | 14.7 | 3.34 | 10.3 | 2.05 | 42.71 | 35.95 | 568 | 906 | 34.68 | 170.21 |  | 
5 | CC(C(=O)OCCCOP(=O)(COCCn1cnc2c(N)ncnc21)OCCCSC(=O)[C@@H](N)Cc1ccccc1)c1ccc(-c2ccccc2)c(F)c1 (some centres not stated) |  | 48.9 |  |  |  |  | 202 |  |  | 4.12 |  | 
6 | CC(C)(C)C(=O)OCOP(=O)(COCCn1cnc2c(N)ncnc21)OCOC(=O)C(C)(C)C [ADEFOVIR DIPIVOXIL] | 42.5 | 0.96 | 39.1 | 0.52 | 50.02 | 47.49 | 471 | 488 | 42.32 | 490.73 |  | 

More lines, main results first:

Row | degraded at 24 h, 1000 µM [1] [%] | EC50 (Hepatitis B virus [5]) [µM] | degraded at 24 h, 1000 µM [9] [%] | half-life [10] [h] | Compound | Activity [2] [%] | Activity [3] [%] | CC50 [4] [µM] | CC50 [6] [µM] | Activity [7] [%] | Ratio CC50/EC50 [8] | Ratio [11] | Ratio EC50 (Hepatitis B virus [12])
7 | 14.9 | 0.73 | 12.5 |  | CC[C@H](C)[C@H](N)C(=O)OCCOP(=O)(COCCn1cnc2c(N)ncnc21)OCCCOC(=O)C(C)c1cccc(C(=O)c2ccccc2)c1 (some centres not stated) | 43.51 | 36.92 | 644 | 768 | 37.85 | 881.92 |  | 
8 |  | 26.9 |  |  | CC(C(=O)OCCCOP(=O)(COCCn1cnc2c(N)ncnc21)OCCCSC(=O)[C@@H](N)C(C)C)c1cccc(C(=O)c2ccccc2)c1 (some centres not stated) |  |  | 1050 |  |  | 39.01 |  | 
9 |  | 44.9 |  |  | CC[C@H](C)[C@H](N)C(=O)SCCCOP(=O)(COCCn1cnc2c(N)ncnc21)OCCCOC(=O)C(C)c1cccc(C(=O)c2ccccc2)c1 (some centres not stated) |  |  | 1000 |  |  | 22.29 |  | 
10 |  | 29.8 |  |  | CC(C(=O)OCCCOP(=O)(COCCn1cnc2c(N)ncnc21)OCCCSC(=O)[C@@H](N)Cc1ccccc1)c1cccc(C(=O)c2ccccc2)c1 (some centres not stated) |  |  | 1000 |  |  | 33.47 |  | 
11 |  | 22.7 |  |  | CC(C)Cc1ccc(C(C)C(=O)OCCCOP(=O)(COCCn2cnc3c(N)ncnc32)OCCCSC(=O)[C@@H](N)C(C)C)cc1 (some centres not stated) |  |  | 122 |  |  | 5.37 |  | 
12 |  | 50 |  |  | CC[C@H](C)[C@H](N)C(=O)SCCCOP(=O)(COCCn1cnc2c(N)ncnc21)OCCCOC(=O)C(C)c1ccc(CC(C)C)cc1 (some centres not stated) |  |  | 157 |  |  | 3.14 |  | 
13 |  | 36.7 |  |  | CC[C@H](C)[C@H](N)C(=O)SCCCOP(=O)(COCCn1cnc2c(N)ncnc21)OCCCOC(=O)C(C)c1ccc(-c2ccccc2)c(F)c1 (some centres not stated) |  |  | 363 |  |  | 9.88 |  | 
14 | 11.2 | 0.51 | 8.3 | 2.75 | CC(C(=O)OCCCOP(=O)(COCCn1cnc2c(N)ncnc21)OCCOC(=O)[C@@H](N)C(C)C)c1cccc(C(=O)c2ccccc2)c1 (some centres not stated) | 44.9 | 38.72 | 866 | 840 | 37.63 | 1697.64 | 4 | 2
